In patent US7101875B2, “Methods for treating arthritic disorders” (Wyeth, priority 2001, dated 2006) one finds IC50 and melting point data, which are given here for twelve compounds.

In general, IC50 refers to the point on the concentration scale where inhibition reaches its midpoint. As usually defined, the melting point is the temperature, or range, at which the solid turns liquid.

One data set concerns the target T1, cPLA2 (Homo sapiens, UniProt P47712).
T1 sequence (P47712 1-749): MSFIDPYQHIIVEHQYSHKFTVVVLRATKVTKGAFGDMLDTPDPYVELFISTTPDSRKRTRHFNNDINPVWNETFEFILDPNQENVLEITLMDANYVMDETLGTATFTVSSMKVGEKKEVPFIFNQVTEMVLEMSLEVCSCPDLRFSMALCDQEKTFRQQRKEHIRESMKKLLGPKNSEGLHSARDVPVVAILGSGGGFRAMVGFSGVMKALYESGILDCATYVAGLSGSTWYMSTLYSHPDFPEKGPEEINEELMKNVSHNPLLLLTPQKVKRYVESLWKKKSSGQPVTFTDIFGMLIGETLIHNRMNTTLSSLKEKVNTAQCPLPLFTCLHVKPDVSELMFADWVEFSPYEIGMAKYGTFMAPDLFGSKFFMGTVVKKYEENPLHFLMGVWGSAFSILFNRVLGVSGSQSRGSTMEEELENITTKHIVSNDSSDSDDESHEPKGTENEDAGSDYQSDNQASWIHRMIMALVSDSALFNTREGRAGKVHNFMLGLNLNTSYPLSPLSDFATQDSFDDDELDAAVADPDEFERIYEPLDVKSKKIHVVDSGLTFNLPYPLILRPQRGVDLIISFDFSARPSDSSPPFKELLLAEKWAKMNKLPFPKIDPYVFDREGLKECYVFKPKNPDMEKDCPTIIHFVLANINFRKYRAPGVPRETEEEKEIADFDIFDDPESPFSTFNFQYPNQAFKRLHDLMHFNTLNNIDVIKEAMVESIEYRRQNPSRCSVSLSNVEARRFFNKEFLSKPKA
Kind of data set: Coumarine Assay (hydrolysis of 7-hydroxycoumarinyl 6-heptenoate by cPLA2, fluorometric). The settings on record: 60 μM 7-hydroxycoumarinyl 6-heptenoate substrate, 4 μg cPLA2, pH 7.5, excitation 360 nm / emission 460 nm; read-out: Coumarin IC50. The data set is classed as biochemical.
Method: Inhibitors were mixed with 200 μL assay buffer (80 mM Heped, pH 7.5, 1 mM EDTA) containing 60 μM 7-hydroxycoumarinyl 6-heptenoate. The reaction was initiated by adding 4 μg cPLA2 in 50 μL assay buffer. Hydrolysis of the 7-hydroxycounarimyl 6-heptenoate ester was monitored in a fluorometer by exciting at 360 nm and monitoring emission at 460 nm. Enzyme activity is proportional to the increase in emission at 460 nm per minute. In the presence of a cPLA2 inhibitor, the rate of increase is less.
With “2-{2-[1-Benzhydryl-5-chloro-2-(2-phenylmethanesulfonylamino-ethyl)-1H-indol-3-yl]-ethoxy}-benzoic acid [Example 283]”, the IC50 is 500 nM.
Turning to “4-[2-(1-benzhydryl-5-chloro-2-{2-[({2-[(3R,5S)-3,5-dimethylmorpholin-4-yl]ethyl}sulfonyl)amino]ethyl}-1H-indol-3-yl)ethoxy]benzoic acid [Example 250]”, the IC50 stood at 2100 nM.
The same measure, in the same setting: the value for “4-{2-[1-Benzhydryl-5-chloro-2-{2-[({2-trifluoromethylsulfonylbenzene}-sulfonyl)amino]ethyl}-1H-indol-3-yl)propyl]benzoic acid [Example 208]” was 240 nM; that for “4-{2-[1-benzhydryl-5-chloro-2-(2-{[(2,6-dimethylbenzyl)sulfonyl]amino}ethyl)-1H-indol-3-yl]ethoxy}benzoic acid [Example 279]” was 160 nM.
With `Nc1ccccc1CS(=O)(=O)NCCc1cc(OCCc2cn(C(c3ccccc3)c3ccccc3)c3ccc(Cl)cc23)ccc1C(=O)O` [Example 16, 2-(2-{[(2-Aminobenzyl)sulfonyl]amino}ethyl)-4-{2-[1-benzhydryl-5-chloro-1H-indol-3-yl]ethoxy}benzoic acid], the IC50 worked out at 980 nM.
For `CC(Cc1ccc(C(=O)O)cc1)c1c(CCNS(=O)(=O)Cc2ccccc2[N+](=O)[O-])n(C(c2ccccc2)c2ccccc2)c2ccc(Cl)cc12` (stereo not drawn) [Example 56, 4-{2-[1-Benzhydryl-5-chloro-2-{2-[({2-nitrobenzyl}-sulfonyl)amino]ethyl}-1H-indol-3-yl)propyl]benzoic acid], the IC50 turned out to be 130 nM.
Still for that read-out and setting: the value for `O=C(O)c1ccc(OCCc2c(CCNS(=O)(=O)Cc3ccc(Cl)c(Cl)n3)n(C(c3ccccc3)c3ccccc3)c3ccc(Cl)cc23)cc1` [Example 76] was 400 nM; that for `COc1ccccc1SCS(=O)(=O)NCCc1c(CCOc2ccc(C(=O)O)cc2)c2cc(Cl)ccc2n1C(c1ccccc1)c1ccccc1` [Example 83] was 450 nM; that for `CC(C)Oc1cc(OCCc2c(CCNS(=O)(=O)Cc3ccc(Cl)c(Cl)c3)n(C(c3ccccc3)c3ccccc3)c3ccc(Cl)cc23)ccc1C(=O)O` [Example 300, 4-{2-[1-benzhydryl-5-chloro-2-(2-{[(3,4-dichlorobenzyl)sulfonyl]amino}ethyl)-1H-indol-3-yl]ethoxy}-2-isopropoxybenzoic acid] was above 2000 nM.

Tested on in a further data set: not given
Test: not given
Conditions: not given
On to `O=C(O)c1ccc(OCCc2c(CCNS(=O)(=O)Cc3ccc(Cl)c(Cl)c3)n(C(c3ccccc3)c3ccccc3)c3ccc(Cl)cc23)cc1F` [Example 296, 4-{2-[1-benzhydryl-5-chloro-2-(2-{[(3,4-dichlorobenzyl)sulfonyl]amino}ethyl)-1H-indol-3-yl]ethoxy}-2-fluorobenzoic acid], for which the melting point is 117 to 119 °C.
`O=C(O)c1ccc(OCCc2c(CCNS(=O)(=O)Cc3ccccc3Cl)n(C(c3ccccc3)c3ccccc3)c3ccc(Cl)cc23)cc1F` [Example 297, 4-{2-[1-benzhydryl-5-chloro-2-(2-{[(2-chlorobenzyl)sulfonyl]amino}ethyl)-1H-indol-3-yl]ethoxy}-2-fluorobenzoic acid] showed a melting point of 132 to 135 °C.
The compound `CC(C)(Cc1ccc(S(=O)(=O)CCc2c(CCNS(=O)(=O)Cc3ccc(Cl)c(Cl)c3)n(C(c3ccccc3)c3ccccc3)c3ccc(Cl)cc23)cc1)C(=O)O` [Example 298, 3-[4-({2-[1-benzhydryl-5-chloro-2-(2-{[(3,4-dichlorobenzyl)sulfonyl]amino}ethyl)-1H-indol-3-yl]ethyl}sulfonyl)phenyl]-2,2-dimethylpropanoic acid] came in with a melting point of 207 to 208 °C.
